Values belong to the compound of their own block, whether it stands above or below them.
Assays:
[1] = tested on: DU145 cell lines; assay: Antitumor effect on CRPC model mice, tumor volume; type: in vivo
Text: 1×10^6 metastatic CRPC cell lines (DU145 cell lines) were subcutaneously inoculated to castrated male nude mice (BALB/C) to prepare subcutaneous tumor model mice. When the tumor size reached about 100 mm^3, the subcutaneous tumor model mice (CRPC model mice) were divided into three groups (control group, cabazitaxel administration group and cloperastine administration group). To the cloperastine administration group (n=5), a cloperastine hydrochloride (manufactured by Sigma-Aldrich Co. LLC) was orally administered daily at a dose of 12.5 mg/kg (body weight) per day in terms of cloperastine (“cloperastine administration group” in FIG. 7A). To the cabazitaxel administration group (n=5), cabazitaxel (manufactured by Carbosynth Limited) was intraperitoneally administered in a single dose of 10 mg/kg (body weight) (“cabazitaxel administration group” in FIG. 7A). On the other hand, any of the cloperastine hydrochloride and cabazitaxel was not administered to the control group (n=5) (control group in FIG. 7A).
The 1×10^6 DU145CR cell lines established in Example 5 were subcutaneously inoculated to castrated male nude mice (BALB/C) to prepare subcutaneous tumor model mice (cabazitaxel-resistant CRPC mice). When the tumor size reached about 100 mm^3, the subcutaneous tumor model mice were divided into three groups (control group, cabazitaxel administration group and cloperastine administration group). To the cloperastine administration group (n=5), a cloperastine hydrochloride (manufactured by Sigma-Aldrich Co. LLC) was orally administered daily at a dose of 12.5 mg/kg (body weight) per day in terms of cloperastine (“cloperastine administration group” in FIG. 7B). […] For the CRPC model mice and the cabazitaxel-resistant CRPC mice, tumor volumes were measured and an average value was calculated immediately after oral administration of the cloperastine hydrochloride (day 0) and 4 days, 8 days, 12 days and 16 days after the oral administration.

[2] = tested on: normal cells; assay: Impact on growth of normal cells; type: cell-based; details: 1 μM
[3] = tested on: DU145 cell lines; assay: Cell growth suppressive effect, number of living cells (Premix WST-1), Example 2; type: cell-based; details: cloperastine 0.1, 1, 10 μM, 24 hours, vs culture without cloperastine
Description: (§1) For confirming that the cloperastine species has a cell growth suppressive effect on metastatic CRPC, metastatic CRPC cell lines (DU145 cell lines and PC3 cell lines) were cultured in the presence of the cloperastine species, and the cell growth property was analyzed.
(§2) DU145 cell lines and PC3 cell lines (these cell lines were obtained from ATCC [American Type Culture Collection]) were cultured on a 96-well plate for 24 hours. […] As a control, an experiment was also conducted in which DU145 cell lines and PC3 cell lines were cultured in a culture solution free of a cloperastine hydrochloride.

[4] = tested on: PC3 cell lines; assay: as above; type: cell-based; details: cloperastine 0.1, 1, 10 μM, 24 hours, vs culture without cloperastine
Description: as §1, §2

[5] = tested on: DU145 cell lines; assay: EMT-related gene mRNA expression, quantitative PCR; type: cell-based; details: 10 μM cloperastine, 24 hours, vs control group
Description: (§3) For confirming that the cloperastine species has a suppressive effect on EMT in metastatic CRPC cells, metastatic CRPC cell lines (DU145 cell lines and PC3 cell lines) were cultured in the presence of the cloperastine species, and the gene expression profiles of EMT-related factors were analyzed.
(§4) DU145 cell lines and PC3 cell lines were cultured for 24 hours in the presence of 10 μM cloperastine or without cloperastine (cloperastine treatment group and control group, respectively), and mRNA was then extracted with “RNeasy Mini kit” (manufactured by QIAGEN Company). From the extracted mRNA, cDNA was synthesized with “PrimeScript RT reagent Kit” (manufactured by Takara Bio Inc.). For analyzing the mRNA expression levels of genes encoding six kinds of factors (E-cadherin, vimentin, “Zinc finger protein SNAI1”, “Zinc finger protein SNAI2”, “Zinc finger E-box-binding homeobox 1” and “Zinc finger E-box-binding homeobox 2”) (CDH1 gene, VIM gene, SNAI1 gene, SNAI2 gene, ZEB1 gene and ZEB2 gene, respectively), quantitative PCR analysis was performed with the primer and TaqMan probe sets (TaqMan Gene Expression Assays) (manufactured by Applied Biosystems Company) shown in Table 1 below, and CFX96 Real-Time System (manufactured by Bio-Rad Laboratories, Inc).

[6] = tested on: PC3 cell lines; assay: EMT-related gene mRNA expression, quantitative PCR; type: cell-based; details: 10 μM cloperastine, 24 hours, vs control group
Description: as §3, §4

[7] = tested on: DU145CR cell lines; assay: Antitumor effect on cabazitaxel-resistant CRPC mice, tumor volume; type: in vivo
Text: The 1×10^6 DU145CR cell lines established in Example 5 were subcutaneously inoculated to castrated male nude mice (BALB/C) to prepare subcutaneous tumor model mice (cabazitaxel-resistant CRPC mice). When the tumor size reached about 100 mm^3, the subcutaneous tumor model mice were divided into three groups (control group, cabazitaxel administration group and cloperastine administration group). To the cloperastine administration group (n=5), a cloperastine hydrochloride (manufactured by Sigma-Aldrich Co. LLC) was orally administered daily at a dose of 12.5 mg/kg (body weight) per day in terms of cloperastine (“cloperastine administration group” in FIG. 7B). To the cabazitaxel administration group (n=5), cabazitaxel (manufactured by Carbosynth Limited) was intraperitoneally administered in a single dose of 10 mg/kg (body weight) (“cabazitaxel administration group” in FIG. 7B). On the other hand, any of the cloperastine hydrochloride and cabazitaxel was not administered to the control group (n=5) (“control group” in FIG. 7B). For the CRPC model mice and the cabazitaxel-resistant CRPC mice, tumor volumes were measured and an average value was calculated immediately after oral administration of the cloperastine hydrochloride (day 0) and 4 days, 8 days, 12 days and 16 days after the oral administration.

[8] = tested on: DU145CR cell lines; assay: Antitumor effect by use in combination with cabazitaxel, cabazitaxel-resistant CRPC mice, tumor volume; type: in vivo
Text: The 5×10^6 DU145CR cell lines established in Example 5 were subcutaneously inoculated to castrated male nude mice (BALB/C) to prepare subcutaneous tumor model mice (cabazitaxel-resistant CRPC mice). When the tumor size reached about 100 mm^3, the subcutaneous tumor model mice were divided into four groups (control group, cabazitaxel administration group, cloperastine administration group and cloperastine+cabazitaxel administration group). To the cabazitaxel administration group (n=5), cabazitaxel (manufactured by Carbosynth Limited) was intraperitoneally administered in a single dose of 10 mg/kg (body weight). To the cloperastine administration group (n=5), a cloperastine hydrochloride (manufactured by Sigma-Aldrich Co. LLC) was orally administered daily at a dose of 12.5 mg/kg (body weight) per day in terms of cloperastine. To the cloperastine+cabazitaxel administration group (n=5), the cloperastine hydrochloride was orally administered daily at a dose of 12.5 mg/kg (body weight) per day in terms of cloperastine, and cabazitaxel (manufactured by Carbosynth Limited) was intraperitoneally administered in a single dose of 10 mg/kg (body weight). […] For the cabazitaxel-resistant CRPC mice, tumor volumes were measured and an average value was calculated immediately after oral administration (day 0) and 4 days, 8 days and 12 days after the oral administration.

[9] = tested on: DU145 cell lines; assay: Ki67 immunohistological staining; type: cell-based; details: 10 μM, 24 hours, vs culture without cloperastine
Description: (§5) For confirming that the cloperastine species has a cell growth suppressive effect and an apoptosis inducing effect on CRPC and cabazitaxel-resistant CRPC, metastatic CRPC cell lines (DU145 cell lines and PC3 cell lines) were cultured in the presence of the cloperastine species, and analysis was performed by an immunohistological staining method using an antibody to a cell growth marker (Ki67), and a TUNEL (TdT-mediateddUTPnickendlabeling) method.
(§6) DU145 cell lines and DU145CR cell lines were cultured on 96-well plates, respectively, for 24 hours, and to a culture solution, a cloperastine hydrochloride (manufactured by Sigma-Aldrich Co. LLC) was added to 10 μM. The cell lines were further cultured for 24 hours, and the cells were then fixed with 4% paraformaldehyde. The fixed cells were subjected to blocking treatment with a 1% BSA (bovine serum albumin) solution, and primary antibody reaction treatment with a Ki67 antibody (manufactured by Dako Company) was performed overnight at 4° C. […] The immunohistological-stained cell sample was observed under a phase-contrast microscope (see FIG. 8A), and the ratio of Ki67-positive cells was calculated. […] The cell sample stained by the TUNEL method was observed under a phase-contrast microscope (see FIG. 9A), and the ratio of TUNEL-positive cells (cells undergoing apoptosis) was calculated.

[10] = tested on: DU145CR cell lines; assay: Ki67 immunohistological staining; type: cell-based; details: 10 μM, 24 hours, vs culture without cloperastine
Description: as §5, §6

[11] = tested on: C4-2AT6 cell lines; assay: Cell growth suppressive effect on enzalutamide-resistant prostate cancer cell lines (WST-1), Example 7; type: cell-based; details: cloperastine 0.1, 1, 10 μM, vs culture without cloperastine
Description: as §2
(§7) For confirming that the cloperastine species has a cell growth suppressive effect on enzalutamide-resistant prostate cancer and cabazitaxel-resistant prostate cancer, enzalutamide-resistant prostate cancer cell lines (C4-2AT6 cell lines) and cabazitaxel-resistant prostate cancer cell lines (DU145CR cell lines) were used to analyze the cell growth property in the presence of cloperastine species in accordance with the method described in Example 2.

[12] = tested on: DU145CR cell lines; assay: Cell growth suppressive effect on cabazitaxel-resistant prostate cancer cell lines (WST-1), Example 7; type: cell-based; details: cloperastine 0.1, 1, 10 μM, vs culture without cloperastine
Description: as §2, §7

[13] = tested on: DU145 cell lines; assay: TUNEL method (apoptosis); type: cell-based; details: 10 μM, 24 hours, vs culture without cloperastine
Description: as §5, §6

[14] = tested on: DU145CR cell lines; assay: TUNEL method (apoptosis); type: cell-based; details: 10 μM, 24 hours, vs culture without cloperastine
Description: as §5, §6

[15] = tested on: DU145 cell lines; assay: Invasion assay, xCELLigence, Matrigel basement membrane matrix; type: cell-based; details: 1 μM cloperastine hydrochloride, 0 to 48 hours, vs control group
Description: For confirming the anti-prostate cancer effect of the cloperastine species, DU145 cell lines were cultured in the presence of the cloperastine species, and the invasiveness of the cell lines was analyzed (invasion assay).
To a culture solution added to each well of Real-Time Cell Analyzer xCELLigence (manufactured by ACEA Biosciences Inc.), a cloperastine hydrochloride (manufactured by Sigma-Aldrich Co. LLC) was added to 1 μM, and 4.0×10^4 DU145 cell lines were added. The cell lines were then cultured, and the number of cells passing through a Matrigel basement membrane matrix (manufactured by Corning Incorporated) was measured over time (0 to 48 hours) (cloperastine treatment group). As a control for comparison, DU145 cell lines were cultured in a culture solution free of a cloperastine hydrochloride, and the same experiment was conducted (control group).

[16] = tested on: DU145CR cell lines; assay: In vitro analysis of cabazitaxel resistance, number of living cells (WST-1); type: cell-based; details: 24 hours
Description: DU145CR cell lines were established by culturing DU145 cell lines in the presence of 0.2 nM cabazitaxel (manufactured by Carbosynth Limited) for about 2 years while gradually increasing the cabazitaxel concentration to 3 nM.

[17] = tested on: DU145 cell lines; assay: as above; type: cell-based; details: Homo sapiens, DU-145, 24 hours
[18] = tested on: DU145CR cell lines; assay: In vivo analysis of cabazitaxel resistance, subcutaneous tumor model mice (DU145CR vs DU145); details: cabazitaxel 10 mg/kg single intraperitoneal dose; 12 days after administration
Text: The 1×10^6 established DU145CR cell lines and 1×10^6 DU145 cell lines were subcutaneously inoculated to castrated male nude mice (BALB/C), respectively, to prepare subcutaneous tumor model mice (DU145CR mice and DU145 mice). When the tumor size reached about 200 mm^3, the subcutaneous tumor model mice were divided into four groups (DU145 mouse group, cabazitaxel administration DU145 mouse group, DU145CR mouse group and cabazitaxel administration DU145CR mouse group), and to the cabazitaxel administration DU145 mouse group and the cabazitaxel administration DU145CR mouse group (n=5 for each group), cabazitaxel (manufactured by Carbosynth Limited) was intraperitoneally administered in a single dose of 10 mg/kg (body weight). Cabazitaxel was not administered to the DU145 mouse group and the DU145CR mouse group (n=5 for each group). Immediately after oral administration (day 0) and 4 days, 8 days and 12 days after the oral administration, tumor volumes were measured and an average value was calculated.

impact on growth of normal cells [2]: no impact on growth of normal cells
SMILES: Clc1ccc([C@H](OCCN2CCCCC2)c2ccccc2)cc1 (racemic) [cloperastine, 1-{2-[(RS)-(4-chlorophenyl) (phenyl)methoxy]ethyl}piperidine]
tumor volume vs control group ([1]; 12.5 mg/kg per day oral, daily): smaller than the tumor volume in the control group
tumor volume decrease level vs cabazitaxel administration group ([1]; cloperastine 12.5 mg/kg per day oral vs cabazitaxel 10 mg/kg single i.p.): higher than the tumor volume decrease level in the cabazitaxel administration group
number of living cells [3]: significantly smaller number of living cells in a concentration-dependent manner
number of living cells [4]: significantly smaller number of living cells in a concentration-dependent manner
expression levels of mRNA encoding vimentin, SNAI1, SNAI2, ZEB1, ZEB2 [5]: all lower
expression level of mRNA encoding E-cadherin ([6]; PC3 (FIG. 2B)): higher
expression levels of mRNA encoding vimentin, SNAI1, SNAI2, ZEB1, ZEB2 ([6]; PC3): all lower
tumor volume ([7]; 12.5 mg/kg per day oral, daily): considerably reduced the tumor volume
tumor volume vs control group ([8]; cloperastine 12.5 mg/kg per day oral, day 12, p<0.001): statistically significant difference between the cloperastine administration group and the control group
ratio of Ki67-positive cells [9]: lower ratio of Ki67-positive cells
ratio of Ki67-positive cells [10]: lower ratio of Ki67-positive cells
number of living cells [11]: significantly smaller number of living cells in a concentration-dependent manner
number of living cells [12]: significantly smaller number of living cells in a concentration-dependent manner
ratio of TUNEL-positive cells [13]: higher ratio of TUNEL-positive cells
ratio of TUNEL-positive cells [14]: higher ratio of TUNEL-positive cells
invasion of cells [15]: significantly suppressed

IC50 [16]: 11 nM
IC50 [17]: 3.8 nM
SMILES: CO[C@H]1C(=O)[C@]2(C)[C@@H](OC)C[C@H]3OC[C@@]3(OC(C)=O)[C@H]2[C@H](OC(=O)c2ccccc2)[C@]2(O)C[C@H](OC(=O)[C@H](O)[C@@H](NC(=O)OC(C)(C)C)c3ccccc3)C(C)=C1C2(C)C [cabazitaxel]
tumor volume vs control group ([1]; cabazitaxel 10 mg/kg single intraperitoneal dose, day 16, p<0.01): statistically significant difference between the cabazitaxel administration group and the control group
tumor volume, cabazitaxel administration DU145CR mouse group vs cabazitaxel administration DU145 mouse group [18]: about twice
tumor volume ([7]; cabazitaxel 10 mg/kg single intraperitoneal dose): hardly enabled suppression of an increase in tumor volume
tumor volume vs control group ([8]; cabazitaxel 10 mg/kg single i.p., day 12, p>0.05): no statistically significant difference

Source: US20210283117A1, “PROPHYLACTIC OR THERAPEUTIC AGENT FOR PROSTATE CANCER” (KEIO UNIVERSITY, priority 2018, published 2021)
